From patent EP4559922A1, “ANTIHISTAMINE COMPOUND, PREPARATION METHOD THEREFOR AND USE THEREOF” (HC Synthetic Pharmaceutical Co., Ltd., priority 2022, dated 2024) come the findings set out here.

≈ marks a conversion by molar mass, not a printed value.

Data set [1] is described as follows: Antagonism of histamine-induced contraction of isolated ileal smooth muscle of guinea pigs. Conditions: relative to tone after adding histamine; x±s, n = 8; 3 min. As for the experimental part: (§1) The guinea pig was knocked unconscious with a wooden stick, and the abdomen was immediately dissected to separate the ileum about 15 cm in length. The contents of the intestinal segment were flushed with Tyrode's solution and placed in Tyrode's solution at a constant temperature of 37°C for later use, and oxygen was supplied simultaneously. The experimental intestinal tract (1 cm in length) was cut and placed into 20 ml of Tyrode's solution at a constant temperature of 37°C with a continuous oxygen supply. One end of the intestine was fixed on the ventilation hook and the other end was connected to the muscle tone transducer and led to the computer interface. The muscle tone value of the ileal smooth muscle was recorded with a BL system. The experiment was carried out after the intestinal segment contraction became stable.
(§2) After the ileal peristalsis curve stabilized, the tone values before adding the compound were recorded, and then 0.05 mL of histamine was added. […] The operation was repeated 8 times. The antispasmodic percentage was calculated using the following equation. Antispasmodic percentage =; (Tone value after adding histamine−Tone value after adding subject compound)/(Tone value after adding histamine) × 100% [formula]

Data set [2] concerns isolated ileal smooth muscle of guinea pigs. In words: Effect on muscle tone of isolated ileal smooth muscle of guinea pigs (no histamine added). The conditions noted are these: X±s; for Antispasmodic percentage: relative to tone before adding compound, n = 8, 5 min; for Smooth muscle tone After administration: 5 minutes after adding drug; for Smooth muscle tone After administration / Smooth muscle tone Before administration: n = 8; for Smooth muscle tone Before administration: baseline. As for the experimental part:
as §1
After the ileum contraction curve stabilized, the tone values before adding the drug were recorded, then the drug or DMSO was added, and the average tone value of the ileum contraction curve at that point was recorded 5 minutes later. The operation was repeated 8 times. The antispasmodic percentage was calculated according to the following formula. Antispasmodic percentage =; (Tone value before adding subject compound−Tone value after adding subject compound)/(Tone value before adding subject compound); × 100% [formula]

In data set [3] the test system is histamine-induced asthma in guinea pigs. Briefly: Antiasthmatic effect on histamine-induced asthma in guinea pigs (latency period). Conditions: X±s, n = 5; for Post-administration latency period: 1 mg/kg oral gavage, sixty minutes after administration, histamine hydrochloride spray, capped at 8 minutes; for Pre-administration latency period: baseline before administration, histamine hydrochloride 0.8 mg/mL sprayed 40 seconds. In kind it is in vivo. As for the experimental part:
The guinea pigs were placed in a polymethyl methacrylate bell jar and a histamine hydrochloride solution was sprayed ultrasonically (0.8 mg/mL) for 40 seconds. The time point at which the guinea pigs developed asthma was recorded. The time of convulsion and fall was taken as the latency period. Guinea pigs with a latency period exceeding 180 seconds were not selected. […] The guinea pigs were administered by oral gavage at a dose of 2 mL/kg·bw. Sixty minutes after the administration, the guinea pigs were placed in bell jars, and histamine hydrochloride solution was sprayed under the same conditions as in the previous selection. The latency period for the onset of asthma was recorded. […] The results were processed statistically.

The nature of data set [4]: Solubility of the compounds in water, methanol and isopropanol. The format is physicochemical. Conditions: for Solubility in Isopropanol: solvent isopropanol; for Solubility in Water: solvent water; for Solubility in Methanol: solvent methanol.
Experimental: The solubility in water, methanol, and isopropanol of the compounds of the present disclosure and the comparative compounds were measured separately.
The nature of data set [5]: Accelerated stability test. Conditions: 40°C ± 2°C, relative humidity 75% ± 5%. The format is physicochemical.
The subject of another data set is histamine. In words: Antagonism of histamine-induced contraction of isolated ileal smooth muscle of guinea pigs. The conditions noted are these: x±s, n = 8; for Smooth muscle tone After administration: 3 minutes after adding 0.05 mL compound following histamine; for Smooth muscle tone After addition of histamine: after 0.05 mL histamine, before compound; for Smooth muscle tone Before administration: baseline before histamine. As for the experimental part: as §1, §2

For the compound `O=C1Cc2ccccc2C(=C2CCN(CCCOP(=O)(O)O)CC2)c2ccsc21` [Compound III-3], the values for the Antispasmodic percentage in data set [1] and in data set [2] (5 min) were 66.66±15.49% and 30.23±17.82%, respectively. In addition, the Post-administration latency period in data set [3] came to 368.01 ± 50.67 s. In addition, in data set [4], the “Solubility in Isopropanol” value turned out to be 24 mg/mL (≈ 55.4 mM). Further, the “Solubility in Water” value in data set [4] is 20 mg/mL (≈ 46.1 mM). This compound gave a Content in data set [5] (Month 0) of 99.7%. For the same compound, the Description result in data set [5] (Month 0), in data set [5] (Month 1), in data set [5] (Month 2), in data set [5] (Month 3) and in data set [5] (Month 6) was “White powder” in each case. Moreover, the Related substances was determined as 0.03% in data set [5] (Month 0); 0.05% in data set [5] (Month 1); 0.10% in data set [5] (Month 2); 0.15% in data set [5] (Month 3); 0.34% in data set [5] (Month 6). The remaining at 730 h in data set [5] (storage 75% relative humidity, Month 1, read-out: Content) was determined as 99.7%. In data set [5] (storage 75% relative humidity, Month 2, read-out: Content), the remaining at 1460 h was 99.6%. Moreover, the remaining at 2190 h in data set [5] (storage 75% relative humidity, Month 3, read-out: Content) came to 99.5%. The remaining at 4380 h in data set [5] (storage 75% relative humidity, Month 6, read-out: Content) came to 99.2%.

The compound `OCCCCCCN1CCC(=C2c3ccc(Cl)cc3CCc3cccnc32)CC1` [Hydroxyhexyl desloratadine, reference compound] came in with an Antispasmodic percentage in data set [1] of 58.06±13.39%. In the data set with histamine, the “Smooth muscle tone After administration” value came to 1.43 ± 0.47 g. In data set [2], the “Smooth muscle tone After administration” value is 1.30 ± 0.30 g and the Antispasmodic percentage is recorded as 24.42±11.13%. The Post-administration latency period in data set [3] worked out at 281.18 ± 53.76 s. For the same compound, in data set [4], the “Solubility in Isopropanol” value amounted to 32 mg/mL (≈ 77.9 mM), the “Solubility in Methanol” value amounted to 15 mg/mL (≈ 36.5 mM) and the “Solubility in Water” value was “Practically insoluble”.

In data set [1], `O=C1Cc2ccccc2C(=C2CCN(COP(=O)(O)O)CC2)c2ccsc21` [Compound III-1] had an Antispasmodic percentage of 66.76±16.11%. In addition, in the data set with histamine, the “Smooth muscle tone After administration” value came out at 1.14 ± 0.23 g, the “Smooth muscle tone After addition of histamine” value is 3.43 ± 1.06 g and the “Smooth muscle tone Before administration” value worked out at 1.79 ± 0.21 g. In data set [2], the “Smooth muscle tone After administration” value was found to be 1.18 ± 0.25 g and the “Smooth muscle tone Before administration” value was 1.70 ± 0.17 g. Besides, the Antispasmodic percentage in data set [2] (5 min) worked out at 30.59±18.11%. Moreover, in data set [3], the Post-administration latency period came out at 376.25 ± 51.77 s and the Pre-administration latency period stood at 98.57 ± 49.10 s. The “Solubility in Water” value in data set [4] was 20 mg/mL (≈ 49.3 mM).

`O=C1Cc2ccccc2C(=C2CCN(CCCCOCOP(=O)(O)O)CC2)c2ccsc21` [Compound III-8] displayed an Antispasmodic percentage in data set [1] of 66.47±18.83%. For the same compound, in the data set on histamine, the “Smooth muscle tone After administration” value is 1.12 ± 0.21 g, the “Smooth muscle tone After addition of histamine” value turned out to be 3.42 ± 0.99 g and the “Smooth muscle tone Before administration” value is 1.78 ± 0.20 g. In data set [2], the “Smooth muscle tone After administration” value amounted to 1.16 ± 0.21 g and the “Smooth muscle tone Before administration” value turned out to be 1.70 ± 0.29 g. The Antispasmodic percentage in data set [2] (5 min) came to 31.76±18.69%. In data set [3], this compound gave a Post-administration latency period of 376.24 ± 50.42 s and a Pre-administration latency period of 99.49 ± 51.11 s. The “Solubility in Water” value in data set [4] is 20 mg/mL (≈ 41.9 mM).

For `OCCN1CCC(=C2c3ccc(Cl)cc3CCc3cccnc32)CC1` [Hydroxyethyl desloratadine, reference compound], the Antispasmodic percentage in data set [1] amounted to 58.53±10.79%. For the same compound, in the data set with histamine, the “Smooth muscle tone After administration” value stood at 1.41 ± 0.43 g. In data set [2], the “Smooth muscle tone After administration” value was 1.33 ± 0.27 g and the Antispasmodic percentage was determined as 21.76±10.04%. The Post-administration latency period in data set [3] was determined as 281.12 ± 54.82 s. In data set [4], the “Solubility in Isopropanol” value is 21 mg/mL (≈ 59.2 mM), the “Solubility in Methanol” value was determined as 27 mg/mL (≈ 76.1 mM) and the “Solubility in Water” value is recorded as “Practically insoluble”.

In data set [1], `O=C1Cc2ccccc2C(=C2CCN(CCCCOP(=O)(O)O)CC2)c2ccsc21` [Compound III-4] came in with an Antispasmodic percentage of 64.24±17.11%. For the same compound, in the data set on histamine, the “Smooth muscle tone After administration” value was determined as 1.23 ± 0.24 g, the “Smooth muscle tone After addition of histamine” value is 3.44 ± 0.96 g and the “Smooth muscle tone Before administration” value was 1.78 ± 0.17 g. In data set [2], the “Smooth muscle tone After administration” value was determined as 1.16 ± 0.23 g and the “Smooth muscle tone Before administration” value stood at 1.72 ± 0.16 g. In data set [2] (5 min), this compound came in with an Antispasmodic percentage of 32.55±18.33%. In data set [3], this compound came in with a Post-administration latency period of 369.49 ± 51.06 s and a Pre-administration latency period of 99.07 ± 50.25 s. Moreover, the “Solubility in Water” value in data set [4] stood at 20 mg/mL (≈ 44.7 mM).

As to `OCCCN1CCC(=C2c3ccc(Cl)cc3CCc3cccnc32)CC1` [Hydroxypropyl desloratadine, reference compound], the Antispasmodic percentage in data set [1] amounted to 57.05±12.07%. The “Smooth muscle tone After administration” value with histamine worked out at 1.46 ± 0.49 g. In data set [2], the “Smooth muscle tone After administration” value was 1.30 ± 0.24 g and the Antispasmodic percentage was determined as 23.97±11.12%. Moreover, the Post-administration latency period in data set [3] is 285.28 ± 56.32 s. In data set [4], the “Solubility in Isopropanol” value came out at 26 mg/mL (≈ 70.5 mM), the “Solubility in Methanol” value amounted to 24 mg/mL (≈ 65.1 mM) and the “Solubility in Water” value was “Practically insoluble”.

With `OCCCCN1CCC(=C2c3ccc(Cl)cc3CCc3cccnc32)CC1` [Hydroxybutyl desloratadine, reference compound], the Antispasmodic percentage in data set [1] is on record as 57.77±13.69%. Moreover, in the data set with histamine, the “Smooth muscle tone After administration” value amounted to 1.45 ± 0.47 g. Further, in data set [2], the “Smooth muscle tone After administration” value worked out at 1.31 ± 0.28 g and the Antispasmodic percentage stood at 24.27±12.31%. The compound also displayed a Post-administration latency period in data set [3] of 286.23 ± 55.29 s. Besides, in data set [4], the “Solubility in Isopropanol” value came to 28 mg/mL (≈ 73.1 mM), the “Solubility in Methanol” value is 22 mg/mL (≈ 57.5 mM) and the “Solubility in Water” value is given as “Practically insoluble”.

Turning to `OCCCCCN1CCC(=C2c3ccc(Cl)cc3CCc3cccnc32)CC1` [Hydroxypentyl desloratadine, reference compound], the Antispasmodic percentage in data set [1] is 57.48±12.05%. Further, the “Smooth muscle tone After administration” value in the data set with histamine is 1.44 ± 0.51 g. Further, in data set [2], the “Smooth muscle tone After administration” value was determined as 1.28 ± 0.24 g and the Antispasmodic percentage came out at 25.14±12.21%. This compound also returned a Post-administration latency period in data set [3] of 284.29 ± 57.34 s. In addition, in data set [4], the “Solubility in Isopropanol” value worked out at 29 mg/mL (≈ 73.1 mM), the “Solubility in Methanol” value was 19 mg/mL (≈ 47.9 mM) and the “Solubility in Water” value was “Practically insoluble”.

Take `O=C1Cc2ccccc2C(=C2CCN(CCCOP(=O)(O)O)CC2)c2ccsc21` [Compound IV-3]: the results for the Antispasmodic percentage in data set [1] and in data set [2] (5 min) were 64.91±18.92% and 30.95±19.69%, respectively. Also, the Post-administration latency period in data set [3] turned out to be 371.38 ± 49.10 s. Also, in data set [4], the “Solubility in Isopropanol” value is 1 mg/mL (≈ 2.31 mM). Further, the Content in data set [5] (Month 0) worked out at 99.7%; in data set [5] (Month 1, 43800 min), 99.7%; in data set [5] (Month 2, 87600 min), 99.6%; in data set [5] (Month 3, 131400 min), 99.6%; in data set [5] (Month 6, 262800 min) it was 99.4%. The Description entry in data set [5] (Month 0), in data set [5] (Month 1), in data set [5] (Month 2), in data set [5] (Month 3) and in data set [5] (Month 6) was “White powder” each time. The Related substances in data set [5] (Month 0) came to 0.03%; in data set [5] (Month 1), 0.05%; in data set [5] (Month 2), 0.09%; in data set [5] (Month 3), 0.12%; in data set [5] (Month 6), 0.25%.
